Experimental data: PubChem BioAssay AID330 (DTP/NCI, 2004)
“And” between values parts separate entries of the source, which are not always exact repeats. Equal values may be shown once. Toxic doses and inconclusive results are not listed.

Tested on: P388 leukemia ip, CD2F1 mice, survival T/C
Experiment: NCI In Vivo Anticancer Drug Screen. Data for tumor model P388 Leukemia (intraperitoneal) in CD2F1 (CDF1) mice
Conditions: endpoint: median survival time, higher = longer survival
How it was run: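 Mice carrying the transplanted tumor received test compound or vehicle. Survival was recorded in each group, and the value is the treated-group measurement divided by that of the vehicle-treated control group.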

[1] = dose: 50.0 mg/kg/injection, schedule: Q01DX009 (ip), vehicle: saline with Tween-80
[2] = dose: 100.0 mg/kg/injection, schedule: Q01DX009 (ip), vehicle: saline with Tween-80
[3] = dose: 200.0 mg/kg/injection, schedule: Q01DX009 (ip), vehicle: saline with Tween-80
[4] = dose: 50.0 mg/kg/injection, schedule: Q01DX005 (ip), vehicle: saline
[5] = dose: 60.0 mg/kg/injection, schedule: Q01DX005 (ip), vehicle: saline with Tween-80
[6] = dose: 120.0 mg/kg/injection, schedule: Q01DX005 (ip), vehicle: saline with Tween-80

CCOC1=NC(C)C(C)N1 (stereo not given)
T/C (dose: 25.0 mg/kg/injection, schedule: Q01DX001 (ip), vehicle: saline): 101 % of control | T/C (dose: 50.0 mg/kg/injection, schedule: Q01DX001 (ip), vehicle: saline): 101 % of control | T/C (dose: 100.0 mg/kg/injection, schedule: Q01DX001 (ip), vehicle: saline): 108 % of control and 97 % of control

COc1cc(C(=O)NC2CC2)cc(OC)c1OC
T/C (dose: 25.0 mg/kg/injection, schedule: Q01DX009 (ip), vehicle: saline with Tween-80): 101 % of control | T/C [1]: 104 % of control | T/C [2]: 107 % of control | T/C [3]: 110 % of control

CCCNC(=O)OCc1c(COC(=O)NCCC)c(-c2ccc(Cl)c(Cl)c2)n2c1CCC2
T/C (dose: 12.5 mg/kg/injection, schedule: Q01DX009 (ip), vehicle: distilled water + Tween-80): 120 % of control | T/C (dose: 20.0 mg/kg/injection, schedule: Q01DX009 (ip), vehicle: distilled water + Tween-80): 154 % of control | T/C (dose: 40.0 mg/kg/injection, schedule: Q01DX009 (ip), vehicle: distilled water + Tween-80): 154 % of control and 172 % of control | T/C (dose: 50.0 mg/kg/injection, schedule: Q01DX009 (ip), vehicle: distilled water + Tween-80): 166 % of control | T/C (dose: 80.0 mg/kg/injection, schedule: Q01DX009 (ip), vehicle: distilled water + Tween-80): 102 % of control and 91 % of control | T/C (dose: 100.0 mg/kg/injection, schedule: Q01DX009 (ip), vehicle: distilled water + Tween-80): 95 % of control

[Cl][Eu][Cl]
T/C (dose: 50.0 mg/kg/injection, schedule: Q01DX009 (ip), vehicle: saline): 87 % of control | T/C (dose: 100.0 mg/kg/injection, schedule: Q01DX009 (ip), vehicle: saline): 91 % of control

S=C(c1c(Cl)cccc1Cl)N1CN(Cc2ccc(Cl)cc2)CN(Cc2ccc(Cl)cc2)C1
T/C [1]: 99 % of control | T/C [2]: 96 % of control | T/C [3]: 108 % of control

C#CC(=O)OCC#CCOC(=O)C#C
T/C (dose: 0.75 mg/kg/injection, schedule: Q01DX009 (ip), vehicle: saline with Tween-80): 104 % of control | T/C (dose: 1.5 mg/kg/injection, schedule: Q01DX009 (ip), vehicle: saline with Tween-80): 104 % of control | T/C (dose: 3.0 mg/kg/injection, schedule: Q01DX009 (ip), vehicle: saline with Tween-80): 112 % of control | T/C (dose: 6.0 mg/kg/injection, schedule: Q01DX009 (ip), vehicle: saline with Tween-80): 96 % of control

O=S(=O)(O)c1cc2nonc2c2ccccc12
T/C (dose: 50.0 mg/kg/injection, schedule: Q01DX005 (ip), vehicle: saline with Tween-80): 98 % of control | T/C (dose: 100.0 mg/kg/injection, schedule: Q01DX005 (ip), vehicle: saline with Tween-80): 98 % of control | T/C (dose: 200.0 mg/kg/injection, schedule: Q01DX005 (ip), vehicle: saline with Tween-80): 95 % of control

CCc1c2c(c(C)n1C)C(c1ccccc1)=NCC(=O)N2
T/C [1]: 91 % of control | T/C [2]: 98 % of control | T/C [3]: 98 % of control

C=C=C(C)CN(CC)CC
T/C [4]: 108 % of control | T/C (dose: 100.0 mg/kg/injection, schedule: Q01DX005 (ip), vehicle: saline): 107 % of control | T/C (dose: 200.0 mg/kg/injection, schedule: Q01DX005 (ip), vehicle: saline): 108 % of control

CCOC(=O)/C(C#N)=C/NCCc1c[nH]c2ccccc12
T/C (dose: 50.0 mg/kg/injection, schedule: Q01DX005 (ip), vehicle: Klucel (hydroxypropylcellulose) (HPC)): 102 % of control | T/C (dose: 100.0 mg/kg/injection, schedule: Q01DX005 (ip), vehicle: Klucel (hydroxypropylcellulose) (HPC)): 103 % of control | T/C (dose: 200.0 mg/kg/injection, schedule: Q01DX005 (ip), vehicle: Klucel (hydroxypropylcellulose) (HPC)): 94 % of control

COC(=O)C(C(=O)OC)C(CC(=O)c1ccccc1)c1ccccc1 (stereo not given)
T/C [1]: 109 % of control | T/C [2]: 103 % of control | T/C [3]: 103 % of control

CC1CC(=O)c2c(nn(C)c2COCc2ccccc2)C1 (stereo not given)
T/C [5]: 102 % of control | T/C [6]: 91 % of control | T/C (dose: 240.0 mg/kg/injection, schedule: Q01DX005 (ip), vehicle: saline with Tween-80): 96 % of control

C=C1CCCC2CCC[N+](C)(CC(=O)OCC)C12 (stereo not given)
T/C [4]: 93 % of control

COc1cc2c(cc1OC)[C@@H]1C(=O)c3ccc4c(c3O[C@@H]1CO2)C[C@H](C(C)C)O4
T/C (dose: 6.25 mg/kg/injection, schedule: Q01DX005 (ip), vehicle: Klucel (hydroxypropylcellulose) (HPC)): 109 % of control | T/C (dose: 12.5 mg/kg/injection, schedule: Q01DX005 (ip), vehicle: Klucel (hydroxypropylcellulose) (HPC)): 121 % of control and 123 % of control and 124 % of control | T/C (dose: 25.0 mg/kg/injection, schedule: Q01DX005 (ip), vehicle: Klucel (hydroxypropylcellulose) (HPC)): 119 % of control

CCN(CC)c1cc(=O)nc2ccccn12
T/C (dose: 60.0 mg/kg/injection, schedule: Q01DX005 (ip), vehicle: saline): 100 % of control | T/C (dose: 120.0 mg/kg/injection, schedule: Q01DX005 (ip), vehicle: saline): 99 % of control | T/C (dose: 240.0 mg/kg/injection, schedule: Q01DX005 (ip), vehicle: saline): 106 % of control

O[B]c1nc2ccccc2c2ccccc12
T/C (dose: 60.0 mg/kg/injection, schedule: Q01DX005 (ip), vehicle: Klucel (hydroxypropylcellulose) (HPC)): 105 % of control | T/C (dose: 120.0 mg/kg/injection, schedule: Q01DX005 (ip), vehicle: Klucel (hydroxypropylcellulose) (HPC)): 102 % of control | T/C (dose: 240.0 mg/kg/injection, schedule: Q01DX005 (ip), vehicle: Klucel (hydroxypropylcellulose) (HPC)): 119 % of control

COc1cccc2c1C(=O)c1c(O)c3c(c(O)c1C2=O)C[C@@](O)(C(=O)COC(=O)c1cccnc1)C[C@@H]3OC1CC(N)C(O)C(C)O1 (stereo not given in full)
T/C (dose: 0.25 mg/kg/injection, schedule: Q04DX003 (ip), vehicle: saline): 114 % of control | T/C (dose: 0.5 mg/kg/injection, schedule: Q01DX009 (ip), vehicle: saline with Tween-80): 118 % of control | T/C (dose: 0.5 mg/kg/injection, schedule: Q01DX009 (ip), vehicle: water): 163 % of control | T/C (dose: 0.5 mg/kg/injection, schedule: Q04DX003 (ip), vehicle: saline): 113 % of control | T/C (dose: 0.5 mg/kg/injection, schedule: Q04DX003 (ip), vehicle: water): 109 % of control | T/C (dose: 1.0 mg/kg/injection, schedule: Q01DX009 (ip), vehicle: saline with Tween-80): 122 % of control | T/C (dose: 1.0 mg/kg/injection, schedule: Q01DX009 (ip), vehicle: water): 167 % of control | T/C (dose: 1.0 mg/kg/injection, schedule: Q04DX003 (ip), vehicle: saline): 116 % of control and 122 % of control | T/C (dose: 1.0 mg/kg/injection, schedule: Q04DX003 (ip), vehicle: water): 119 % of control | T/C (dose: 1.32 mg/kg/injection, schedule: Q01DX009 (ip), vehicle: saline sonified): 209 % of control | T/C (dose: 2.0 mg/kg/injection, schedule: Q01DX009 (ip), vehicle: saline sonified): 209 % of control | T/C (dose: 2.0 mg/kg/injection, schedule: Q01DX009 (ip), vehicle: water): 229 % of control | T/C (dose: 2.0 mg/kg/injection, schedule: Q04DX003 (ip), vehicle: saline): 108 % of control | T/C (dose: 2.0 mg/kg/injection, schedule: Q04DX003 (ip), vehicle: water): 119 % of control | T/C (dose: 3.0 mg/kg/injection, schedule: Q01DX009 (ip), vehicle: saline sonified): 104 % of control | T/C (dose: 4.0 mg/kg/injection, schedule: Q01DX009 (ip), vehicle: water): 102 % of control | T/C (dose: 4.0 mg/kg/injection, schedule: Q04DX003 (ip), vehicle: saline): 113 % of control | T/C (dose: 4.0 mg/kg/injection, schedule: Q04DX003 (ip), vehicle: water): 119 % of control | T/C (dose: 8.0 mg/kg/injection, schedule: Q04DX003 (ip), vehicle: saline): 118 % of control | T/C (dose: 8.0 mg/kg/injection, schedule: Q04DX003 (ip), vehicle: water): 172 % of control | T/C (dose: 16.0 mg/kg/injection, schedule: Q04DX003 (ip), vehicle: water): 166 % of control | T/C (dose: 64.0 mg/kg/injection, schedule: Q04DX003 (ip), vehicle: saline): 95 % of control

O=C(/C=C/c1c[nH]c2ccccc12)c1ccccc1[N+](=O)[O-]
T/C [5]: 94 % of control | T/C [6]: 90 % of control

CN=NN(C)C(=O)NC
T/C (dose: 12.5 mg/kg/injection, schedule: Q01DX005 (ip), vehicle: saline): 102 % of control | T/C (dose: 25.0 mg/kg/injection, schedule: Q01DX005 (ip), vehicle: saline): 117 % of control

CC[Se](CC)CC.CC[Se](CC)CC.C[CH2][Ge]([CH2]C)[O][Ge]([CH2]C)[CH2]C
T/C (dose: 3.12 mg/kg/injection, schedule: Q01DX009 (ip), vehicle: saline): 99 % of control and 95 % of control | T/C (dose: 6.25 mg/kg/injection, schedule: Q01DX009 (ip), vehicle: saline): 96 % of control (2×) and 97 % of control | T/C (dose: 12.5 mg/kg/injection, schedule: Q01DX009 (ip), vehicle: saline): 101 % of control and 107 % of control and 96 % of control | T/C (dose: 25.0 mg/kg/injection, schedule: Q01DX009 (ip), vehicle: saline): 117 % of control and 118 % of control
